Experimental data as given in patent US10711242B2, “Apparatus and methods for controlling cellular development” (The Board of Trustees of the Leland Stanford Junior …, priority 2008, dated 2020).

How the values were obtained:
ChR2-ESC-derived neurons = assay: Patch-clamp recording of excitatory postsynaptic currents in ChR2-ESC-derived neurons; format: cell-based, mouse; details: differentiation day 28
Description: (§1) We first verified that ChR2-ESCs were capable of neural lineage differentiation, using a retinoic acid-based neural differentiation protocol (FIG. 8c). At differentiation day 8, 40±10% of the cells expressed the neural lineage marker nestin. By day 14, a dense network of β-3-tubulin-positive ESC-derived immature neurons could be detected, followed by expression of the mature neuronal cytoskeletal protein MAP2 and the vesicular glutamate transporter II (vGlutll).
Neuronal differentiation was performed as previously described, with modifications. ESCs were plated on matrigel-coated dishes in embryoid body stage in complete ESC medium (see above). […]
For acute slice electrophysiological experiments, 1 week post cell transplantation, 250 μm cortical slices were prepared in ice-cold cutting buffer (64 mM NaCl, 25 mM NaHCO3, 10 mM glucose, 120 mM sucrose, 2.5 mM KCl, 1.25 mM NaH2PO4, 0.5 mM CaCl2 and 7 mM MgCl2, equilibrated with 95% O2/5% CO2) using a vibratome (VT 1000 S; Leica). […] Images were recorded with a CCD camera (Retiga Exi, Qimaging) by Qimaging software. […] Membrane currents were measured with the patch-clamp technique in whole-cell mode using Axon Multiclamp 700B (Axon Instruments) amplifiers. […] Through a 20× objective lens, power density of the blue light was 8-12 mW/mm^2, measured by power meter (Newport). […]

ChR2-ESCs = assay: Retinoic acid-based neural differentiation of ChR2-ESCs, nestin expression; format: cell-based, mouse; details: differentiation day 8; retinoic acid-based neural differentiation protocol
Description: as §1
Neuronal differentiation was performed as previously described, with modifications. ESCs were plated on matrigel-coated dishes in embryoid body stage in complete ESC medium (see above). 24 hours later, medium was changed to ESC medium lacking LIF and including 5 μM retinoic acid, and changed every second day for 5 days. As a second differentiation step, cells were incubated with neural expansion medium for 7 days consisting of N2 supplement, SHH (50 ng/ml), FGF-8b (100 ng/ml), bFGF (10 ng/ml) and ascorbic acid (200 μM, Sigma) in DMEM/F12 and changed every two days. Thereafter cells were cultured in N2 and ascorbic acid in DMEM/F12.
Cells were fixed with 4% paraformaldehyde in PBS for 30 min at room temperature. Fixation was stopped by washing cells three times with 0.1M glycine/PBS. Cells were permeabilized and blocked (4% BSA/0.4% saponin/PBS) for 30 min and incubated in primary antibody solution at 4° C. overnight. […]

Row | SMILES | block of excitatory postsynaptic currents (ChR2-ESC-derived neurons) | cells expressing the neural lineage marker nestin (ChR2-ESCs) [%]
1 | NC(CCCP(=O)(O)O)C(=O)O [D-AP5] | blocked | 
2 | CC1=C(/C=C/C(C)=C/C=C/C(C)=C/C(=O)O)C(C)(C)CCC1 [RA, retinoic acid] |  | 40±10
3 | N#Cc1cc2[nH]c(=O)c(=O)[nH]c2cc1[N+](=O)[O-] [CNQX] | blocked | 
